From patent US20060166900A1, “Salt of morphine-6-glucuronide” (CeNeS Limited, priority 2002, published 2006)

Columns and labels:
Format in all cases: physicochemical
[1] = Colour of solution by visible spectrophotometry on storage (Example 3); details: 5% w/v solution in water
Procedure, shortened: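 5% w/v aqueous solution, absorbance at 420 nm in a 1 cm silica cell. Samples were stored in argon-flushed brown opaque HDPE bottles at 25° C./60% RH, 40° C./75% RH and 60° C.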

[2] = Stability indicating HPLC assay and related substances on storage (Example 3)
[3] = Visual appearance on storage (Example 3)
Procedure, shortened: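 Aliquots (900 mg) kept at 2-8 °C beforehand were stored in argon-flushed brown opaque HDPE bottles at 25 °C/60% RH, 40 °C/75% RH and 60 °C. Visual appearance was assessed at set time points.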

[4] = Stability of M6G salts at room temperature over 6 years, HPLC; details: for Assay M6G corr.: content calculated as M6G derivative
[5] = Water content by Karl Fisher analysis on storage (Example 3)
Procedure, shortened: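 900 mg aliquots were held in argon-flushed brown opaque HDPE bottles at 25 °C/60% RH, 40 °C/75% RH and 60 °C. At each time point, water content (% w/w) was determined in duplicate on about 100 mg of equilibrated material by Karl Fischer titration.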

[6] = almost 6 years at room temperature

CN1CCC23c4c5ccc(O)c4OC2C(OC2OC(C(=O)O)C(O)C(O)C2O)C=CC3C1C5.CN1CCC23c4c5ccc(O)c4OC2C(OC2OC(C(=O)O)C(O)C(O)C2O)C=CC3C1C5.O=S(=O)(O)O (centres unmarked) [Morphine-6-glucuronide sulphate]
Colour ([1]; 1 month, 25° C./60% RH): 0.244 Abs@420 nm
Colour ([1]; 1 month, 40° C./75% RH): 0.430 Abs@420 nm
Colour ([1]; 1 month, 60° C.): 1.714 Abs@420 nm
Colour ([1]; 3 months, 25° C./60% RH): 0.406 Abs@420 nm
Colour ([1]; 3 months, 40° C./75% RH): 1.056 Abs@420 nm
Colour ([1]; Initial): 0.136 Abs@420 nm
Known Related Substances HN33177 ([2]; 1 month, 25° C./60% RH): 0.63%
Known Related Substances HN67003 ([2]; 1 month, 25° C./60% RH): 0.69%
Known Related Substances HN75083 ([2]; 1 month, 25° C./60% RH): 0.27%
M6G Assay, Anhydrous basis ([2]; 1 month, 25° C./60% RH): 81.82 % w/w
M6G Assay, As is basis ([2]; 1 month, 25° C./60% RH): 73.58 % w/w
M6G Assay, Corrected for the salt form ([2]; 1 month, 25° C./60% RH): 90.51 % w/w
Total Known ([2]; 1 month, 25° C./60% RH): 1.59%
Total Related Substances ([2]; 1 month, 25° C./60% RH): 4.29%
Total Unknown ([2]; 1 month, 25° C./60% RH): 2.70%
Known Related Substances HN33177 ([2]; 1 month, 40° C./75% RH): 0.50%
Known Related Substances HN67003 ([2]; 1 month, 40° C./75% RH): 1.58%
Known Related Substances HN75076 ([2]; 1 month, 40° C./75% RH): 0.06%
Known Related Substances HN75083 ([2]; 1 month, 40° C./75% RH): 0.74%
Known Related Substances Morphine ([2]; 1 month, 40° C./75% RH): 0.21%
M6G Assay, Anhydrous basis ([2]; 1 month, 40° C./75% RH): 73.67 % w/w
M6G Assay, As is basis ([2]; 1 month, 40° C./75% RH): 65.04 % w/w
M6G Assay, Corrected for the salt form ([2]; 1 month, 40° C./75% RH): 81.50 % w/w
Total Known ([2]; 1 month, 40° C./75% RH): 3.09%
Total Related Substances ([2]; 1 month, 40° C./75% RH): 9.78%
Total Unknown ([2]; 1 month, 40° C./75% RH): 6.69%
Known Related Substances HN33177 ([2]; 1 month, 60° C.): 0.23%
Known Related Substances HN67003 ([2]; 1 month, 60° C.): 2.73%
Known Related Substances HN75076 ([2]; 1 month, 60° C.): 0.26%
Known Related Substances HN75083 ([2]; 1 month, 60° C.): 0.61%
Known Related Substances Morphine ([2]; 1 month, 60° C.): 0.72%
M6G Assay, Anhydrous basis ([2]; 1 month, 60° C.): 63.84 % w/w
M6G Assay, As is basis ([2]; 1 month, 60° C.): 57.15 % w/w
M6G Assay, Corrected for the salt form ([2]; 1 month, 60° C.): 70.62 % w/w
Total Known ([2]; 1 month, 60° C.): 4.55%
Total Related Substances ([2]; 1 month, 60° C.): 18.25%
Total Unknown ([2]; 1 month, 60° C.): 13.70%
Known Related Substances HN33177 ([2]; 3 months, 25° C./60% RH): 0.52%
Known Related Substances HN67003 ([2]; 3 months, 25° C./60% RH): 1.36%
Known Related Substances HN75083 ([2]; 3 months, 25° C./60% RH): 0.53%
Known Related Substances Morphine ([2]; 3 months, 25° C./60% RH): 0.17%
M6G Assay, Anhydrous basis ([2]; 3 months, 25° C./60% RH): 77.05 % w/w
M6G Assay, As is basis ([2]; 3 months, 25° C./60% RH): 69.08 % w/w
M6G Assay, Corrected for the salt form ([2]; 3 months, 25° C./60% RH): 85.24 % w/w
Total Known ([2]; 3 months, 25° C./60% RH): 2.58%
Total Related Substances ([2]; 3 months, 25° C./60% RH): 9.16%
Total Unknown ([2]; 3 months, 25° C./60% RH): 6.58%
Known Related Substances HN33177 ([2]; 3 months, 40° C./75% RH): 0.23%
Known Related Substances HN67003 ([2]; 3 months, 40° C./75% RH): 1.72%
Known Related Substances HN75076 ([2]; 3 months, 40° C./75% RH): 0.04%
Known Related Substances HN75083 ([2]; 3 months, 40° C./75% RH): 0.58%
Known Related Substances Morphine ([2]; 3 months, 40° C./75% RH): 0.37%
M6G Assay, Anhydrous basis ([2]; 3 months, 40° C./75% RH): 68.38 % w/w
M6G Assay, As is basis ([2]; 3 months, 40° C./75% RH): 59.39 % w/w
M6G Assay, Corrected for the salt form ([2]; 3 months, 40° C./75% RH): 75.64 % w/w
Total Known ([2]; 3 months, 40° C./75% RH): 2.75%
Total Related Substances ([2]; 3 months, 40° C./75% RH): 17.98%
Total Unknown ([2]; 3 months, 40° C./75% RH): 15.23%
stability assessment ([2]; 25° C./60% RH, three months): least stable
Known Related Substances HN33177 ([2]; Initial): 0.69%
Known Related Substances HN67003 ([2]; Initial): 0.15%
Known Related Substances HN75076 ([2]; Initial): 0.01%
Known Related Substances HN75083 ([2]; Initial): 0.23%
M6G Assay, Anhydrous basis ([2]; Initial): 88.49 % w/w
M6G Assay, As is basis ([2]; Initial): 80.62 % w/w
M6G Assay, Corrected for the salt form ([2]; Initial): 97.87 % w/w
Total Known ([2]; Initial): 1.08%
Total Related Substances ([2]; Initial): 1.72%
Total Unknown ([2]; Initial): 0.64%
overall stability comparison ([2]; overall review of Example 3 data): least stable
Appearance ([3]; 1 month, 25° C./60% RH): White crystalline powder
Appearance ([3]; 1 month, 40° C./75% RH): Slightly yellow crystalline powder
Appearance ([3]; 1 month, 60° C.): Pale yellow crystalline powder
Appearance ([3]; 3 months, 25° C./60% RH): Pale yellow crystalline powder
Appearance ([3]; 3 months, 40° C./75% RH): Slightly yellow crystalline powder
Appearance ([3]; Initial): White crystalline powder
HN-33177 ([4]; 0 years): 0.2%
HN-75083 ([4]; 0 years): <0.1%
Unknown related substances (sum area %) ([4]; 0 years): 0.2 area %
Assay M6G corr. ([4]; 0 years): 93.6%
HN-33177 ([4]; 6 years at ambient temperature): 0.3%
HN-67002 ([4]; 6 years at ambient temperature): 1.1%
HN-67003 ([4]; 6 years at ambient temperature): 1.8%
Morphine ([4]; 6 years at ambient temperature): 0.2%
Unknown related substances (sum area %) ([4]; 6 years at ambient temperature): 10.7 area %
Assay M6G corr. ([4]; 6 years at ambient temperature): 76.8%
HN-33177 ([4]; 6 years at ambient temperature, listed as M6G2.H2SO4): did not change
largest unidentified peak [4, 6]: 6.55 area %
peaks present in the chromatogram that cannot be identified by retention time [4, 6]: 13
Moisture ([5]; 1 month, 25° C./60% RH): 4.28 % w/w
Moisture ([5]; 1 month, 40° C./75% RH): 5.93 % w/w
Moisture ([5]; 1 month, 60° C.): 4.68 % w/w
Moisture ([5]; 3 months, 25° C./60% RH): 5.54 % w/w
Moisture ([5]; 3 months, 40° C./75% RH): 8.31 % w/w
Moisture ([5]; Initial): 3.77 % w/w
